Key:
[1] = tested on: a2 (DNA, G4) GGGGTGTGGGGACAGGGGTGTGGGG; assay: 1H NMR / NOESY titration; conditions: K+ 25 mM; K-phosphate buffer, pH 7.0, 25 °C, 2.0 mM a2; terminal stacking on G1-G11-G15-G25 quartet
[2] = tested on: a2^14AP (DNA, G4, 2-aminopurine at 14 (replaces A)) GGGGTGTGGGGACAGGGGTGTGGGG; assay: 2-aminopurine fluorescence quenching titration; conditions: K+ 25 mM; K-phosphate buffer, pH 7.0, 20 °C; 30 µM DNA; significant quenching only above ligand–DNA ratio 1
[3] = tested on: a2^12AP (DNA, G4, 2-aminopurine at 12 (replaces A)) GGGGTGTGGGGACAGGGGTGTGGGG; assay: 2-aminopurine fluorescence quenching titration; conditions: K+ 25 mM; K-phosphate buffer, pH 7.0, 20 °C; 30 µM DNA; significant quenching only above ligand–DNA ratio 1
[4] = tested on: a2 (DNA, G4) GGGGTGTGGGGACAGGGGTGTGGGG; assay: fluorimetric titration (ligand fluorescence quenching); conditions: K+ 25 mM; K-phosphate buffer, pH 7.0, 20 °C; 20 μM ligand

- binding [2]: yes
- binding [3]: yes
- Kb [4]: 1.4 ± 0.2 × 10^6 M^-1
SMILES: Cc1cc2c3c([n+](C)c4ccc(F)cc4c3c1)-c1cc(F)ccc1N2C
- binding [1]: yes
